Patent US11713470B2, “Targeted gene therapies for pain and other neuro-related disorders” (University of Pittsburgh—Of the Commonwealth System of …, priority 2017, dated 2023)
“Also recorded” adds a separate entry of the source.

Experiments:
mice lacking PSAM-GlyR = assay: Pain models (carrageenan, CFA, sural-SNI) in mice lacking PSAM-GlyR (ligand-alone control); type: in vivo, mouse; conditions: 30 mg/kg i.p.
Excerpt: (§1) Methods. Animals: All animals were kept on a standard 12:12 light/dark cycle in micro-isolator caging racks (Allentown Caging) with food and water provided ad libitum. Mouse strains obtained from Jackson Laboratories include C57Bl/6J (JAX #000664), Calr^Cre (JAX #010774) and CCK^Cre (JAX #012706). Adeno-associated viruses (AAV2/8) used in these experiments: hSyn-Flex-rev-PSAM^L141F-GlyR-IRES-eGFP (7^12 vg/ml) and hSyn-Flex-rev-PSAM^L141F,Y115F-GlyR-IRES-eGFP (1.7^13 vg/ml) were custom made by UNC Vector core based on plasmid material developed by Scott Sternson and provided by Addgene. The hSyn-Flex-rev-PSAM^L141F-GlyR-IRES-eGFP (7^12 vg/ml) was used in all experiments except FIG. 8 (e,f). For these experiments, hSyn-Flex-rev-PSAM^L141F,Y115F-GlyR-IRES-eGFP (1.7^13 vg/ml) was used. Methods including: intra-spinal virus injections, paw withdrawal threshold to von Frey filaments, to cotton swab, Hargreaves, pinprick and acute pain behaviors licking, guarding, flicking are all as previously described (Peirs, C. et al. Dorsal Horn Circuits for Persistent Mechanical Pain. Neuron 87, 797-812 (2015); Seal, R. P. et al. Injury-induced mechanical hypersensitivity requires C-low threshold mechanoreceptors. Nature 462, 651-655, (2009)); For paw withdrawal threshold to pressure: mice were lightly restrained by hand such that their rear legs were allowed to freely hang. Using a Pressure Application Measurement device (Ugo Basile) the hind paw was grasped between the experimenter's forefinger and thumb (with pressure transducer on the thumb), and force was slowly applied to the paw until the mouse struggled or flicked its limb (paw withdrawal threshold, PWT). The final force in grams was recorded. Each mouse was tested on the left and right paw for three trials with a ten-minute inter-trial interval between applications, and the three results averaged for each paw. Injury Models including incision, complete Freund's adjuvant, spared nerve injury tibial and sural models, carrageenan, methylglyoxal and multi-dose streptozotocin are as previously described (Peirs, C. et al. Dorsal Horn Circuits for Persistent Mechanical Pain. Neuron 87, 797-812 (2015); Seal, R. P. et al. Injury-induced mechanical hypersensitivity requires C-low threshold mechanoreceptors. Nature 462, 651-655, (2009); Decosterd, I. and Woolf, C. J. Spared nerve injury: an animal model of persistent peripheral neuropathic pain. Pain 87, 149-158 (2000); Bierhaus, A. et al. Methylglyoxal modification of Nav1.8 facilitates nociceptive neuron firing and causes hyperalgesia in diabetic neuropathy. Nat Med 18, 926-933 (2012); Cavanaugh, D. J. et al. Distinct subsets of unmyelinated primary sensory fibers mediate behavioral responses to noxious thermal and mechanical stimuli. Proc Natl Acad Sci USA 106, 9075-9080, (2009)). Chemogenetic Activation of PSAM-GlyR Receptor: Behavior thresholds were performed as described above in AAV8-hSyn-DIO-PSAM-GlyR-IRES-GFP injected mice. PSEM^89S at 30 mg/kg was injected intraperitoneally 15 minutes prior to testing. Immunohistochemistry was performed as previously described (Peirs, C. et al. Dorsal Horn Circuits for Persistent Mechanical Pain. Neuron 87, 797-812 (2015); Seal, R. P. et al. Injury-induced mechanical hypersensitivity requires C-low threshold mechanoreceptors. Nature 462, 651-655 (2009)). α-bungarotoxin conjugated to Alexa-647 (1:1000; ThermoFisher B35450), α-bungarotoxin conjugated to Alexa-488 (1:1000; ThermoFisher B13422). Imaging: Spinal cord sections were imaged with a confocal laser-scanning microscope (Nikon A1R) and Nikon Elements software using 405-, 488-, 561- and 640 nm excitation laser light. In order to suppress emission crosstalk, the microscope was configured to perform all scanning in sequential mode. Z-series were scanned at 20× magnification with an oil immersion lens and a z-step of 5.0 μm. Quantification and Statistical Analysis: all data are reported as mean±SEM. For acute behaviors, a two-tailed Student's t-test was used. […]

[1] = molecular target: T1, PSAM-GlyR in CCK^+ dorsal horn neurons (Homo sapiens, UniProt P23415+P36544, L141F); type: in vivo, mouse; conditions: CCK^Cre mice with PSAM-GlyR
T1 construct: plasmid from Addgene (Sternson); host or cells: mouse dorsal horn neurons transduced with Cre-dependent AAV2/8 (Tlx3^Cre, CCK^Cre or Calr^Cre mice)
Excerpt: as §1

[2] = molecular target: T2, PSAM-GlyR in calretinin neurons in the dorsal horn lamina II (Homo sapiens, UniProt P23415+P36544, L141F); type: in vivo, mouse; conditions: Calr^Cre mice with PSAM-GlyR, 30 mg/kg i.p.
T2 construct: plasmid from Addgene (Sternson); host or cells: mouse dorsal horn neurons transduced with Cre-dependent AAV2/8 (Tlx3^Cre, CCK^Cre or Calr^Cre mice)
Excerpt: as §1

[3] = molecular target: T2, PSAM-GlyR in calretinin neurons in the dorsal horn lamina II; assay: Inflammatory pain models in Calr^Cre mice expressing PSAM-GlyR in the dorsal horn; type: in vivo, mouse; conditions: 30 mg/kg i.p.
Excerpt: as §1, with “Nat Med 18, 926-933 (2012); Cavanaugh, D. J. et al. Distinct subsets of unmyelinated primary sensory fibers mediate behavioral responses to noxious thermal and mechanical stimuli. Proc Natl Acad Sci USA 106, 9075-9080, (2009)). Chemogenetic Activation of PSAM-GlyR Receptor: Behavior thresholds were performed as described above in AAV8-hSyn-DIO-PSAM-GlyR-IRES-GFP injected mice. PSEM^89S at 30 mg/kg was injected intraperitoneally 15 minutes prior to testing. Immunohistochemistry was performed as previously described (Peirs, C. et al. Dorsal Horn Circuits for Persistent Mechanical Pain. Neuron 87, 797-812 (2015); Seal, R. P. et al. Injury-induced mechanical hypersensitivity requires C-low threshold mechanoreceptors. Nature 462, 651-655 (2009)). α-bungarotoxin conjugated to Alexa-647 (1:1000; ThermoFisher B35450), α-bungarotoxin conjugated to Alexa-488 (1:1000; ThermoFisher B13422). Imaging: Spinal cord sections were imaged with a confocal laser-scanning microscope (Nikon A1R) and Nikon Elements software using 405-, 488-, 561- and 640 nm excitation laser light. In order to suppress emission crosstalk, the microscope was configured to perform all scanning in sequential mode. Z-series were scanned at 20× magnification with an oil immersion lens and a z-step of 5.0 μm.” left out, “mean±SEM.” for “mean±SEM. For acute behaviors, a two-tailed Student's t-test was used.”

PSAM-GlyR = conditions: Magnus et al. 2011; cited from earlier work

T2 sequence (P36544+P23415 fused P36544:L141F): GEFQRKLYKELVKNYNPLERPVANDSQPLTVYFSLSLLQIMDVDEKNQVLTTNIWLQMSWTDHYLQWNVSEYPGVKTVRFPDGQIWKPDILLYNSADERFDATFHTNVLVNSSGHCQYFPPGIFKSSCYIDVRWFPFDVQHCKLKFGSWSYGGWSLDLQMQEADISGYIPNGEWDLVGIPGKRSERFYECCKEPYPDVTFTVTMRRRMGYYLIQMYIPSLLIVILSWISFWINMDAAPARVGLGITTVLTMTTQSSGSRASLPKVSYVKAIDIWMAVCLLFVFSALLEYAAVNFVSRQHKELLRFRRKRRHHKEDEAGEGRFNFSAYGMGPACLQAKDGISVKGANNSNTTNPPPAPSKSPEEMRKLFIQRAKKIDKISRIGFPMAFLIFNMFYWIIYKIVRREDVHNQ
T1 sequence (P36544+P23415 fused P36544:L141F): as above

COc1ccc(OC)c(C(=O)NC2CN3CCC2CC3)c1 (centres unmarked) [PSEM^89S]
dynamic allodynia induced by the sural-SNI model (mice lacking PSAM-GlyR): not altered
punctate allodynia induced by the sural-SNI model (mice lacking PSAM-GlyR): not altered
dynamic allodynia induced by CFA (mice lacking PSAM-GlyR; p>0.999): not altered; also recorded: no effect
heat hypersensitivity, carrageenan pain model (mice lacking PSAM-GlyR; p>0.999): not altered; also recorded: no effect
mechanical allodynia, carrageenan pain model (mice lacking PSAM-GlyR; p>0.999): not altered; also recorded: no effect
punctate allodynia induced by CFA (mice lacking PSAM-GlyR; p>0.999): not altered; also recorded: no effect
performance on the rotarod [1]: not altered
baseline von Frey threshold ([1]; 30 mg/kg i.p., p=0.2192): no effect
baseline pinprick ([1]; p=0.5983): no effect
baseline response to cotton swab ([1]; p=0.7293): no effect
baseline pressure with calibrated calipers ([1]; p=0.7450): no effect
baseline Hargreaves latencies ([1]; p=0.9746): unchanged
baseline ipsilateral von Frey threshold ([2]; p=0.3988): no effect
baseline Hargreaves latencies ([2]; p=0.6125): unchanged
baseline pinprick ([2]; p=0.7689): no effect
baseline response to cotton swab ([2]; p=0.7963): no effect
baseline pressure with calibrated calipers ([2]; p=0.8350): no effect
baseline sticky tape ([2]; p=0.9346): no effect
mechanical allodynia (punctate), carrageenan model ([3]; 24 hours after carrageenan, p=0.0074): reverses; also recorded: significantly reversed
mechanical allodynia (punctate), CFA model ([3]; 5 days after CFA, ipsilateral hindpaw, p=0.0026): reverses; also recorded: complete reversal
dynamic mechanical allodynia, incision model ([3]; p=0.0001): reverses
punctate mechanical allodynia, incision model ([3]; p=0.0028): reverses
binding to the mutated receptor binding domain (PSAM-GlyR): high affinity
